Here are results for 19 compounds from patent publication US20060235222A1, “Indole-derivative modulators of steroid hormone nuclear receptors” (ELI LILLY AND COMPANY, priority 2003, published 2006).

The target of one experiment is T1, human MR (Homo sapiens, UniProt P08235).
T1 construct: The full length human MR gene is cloned from a human kidney or human brain cDNA library; inferred from own knowledge of the pAcHLT vector (N); made in house; host or cells: Sf9 insect cells (baculovirus)
T1 sequence (P08235 1-984): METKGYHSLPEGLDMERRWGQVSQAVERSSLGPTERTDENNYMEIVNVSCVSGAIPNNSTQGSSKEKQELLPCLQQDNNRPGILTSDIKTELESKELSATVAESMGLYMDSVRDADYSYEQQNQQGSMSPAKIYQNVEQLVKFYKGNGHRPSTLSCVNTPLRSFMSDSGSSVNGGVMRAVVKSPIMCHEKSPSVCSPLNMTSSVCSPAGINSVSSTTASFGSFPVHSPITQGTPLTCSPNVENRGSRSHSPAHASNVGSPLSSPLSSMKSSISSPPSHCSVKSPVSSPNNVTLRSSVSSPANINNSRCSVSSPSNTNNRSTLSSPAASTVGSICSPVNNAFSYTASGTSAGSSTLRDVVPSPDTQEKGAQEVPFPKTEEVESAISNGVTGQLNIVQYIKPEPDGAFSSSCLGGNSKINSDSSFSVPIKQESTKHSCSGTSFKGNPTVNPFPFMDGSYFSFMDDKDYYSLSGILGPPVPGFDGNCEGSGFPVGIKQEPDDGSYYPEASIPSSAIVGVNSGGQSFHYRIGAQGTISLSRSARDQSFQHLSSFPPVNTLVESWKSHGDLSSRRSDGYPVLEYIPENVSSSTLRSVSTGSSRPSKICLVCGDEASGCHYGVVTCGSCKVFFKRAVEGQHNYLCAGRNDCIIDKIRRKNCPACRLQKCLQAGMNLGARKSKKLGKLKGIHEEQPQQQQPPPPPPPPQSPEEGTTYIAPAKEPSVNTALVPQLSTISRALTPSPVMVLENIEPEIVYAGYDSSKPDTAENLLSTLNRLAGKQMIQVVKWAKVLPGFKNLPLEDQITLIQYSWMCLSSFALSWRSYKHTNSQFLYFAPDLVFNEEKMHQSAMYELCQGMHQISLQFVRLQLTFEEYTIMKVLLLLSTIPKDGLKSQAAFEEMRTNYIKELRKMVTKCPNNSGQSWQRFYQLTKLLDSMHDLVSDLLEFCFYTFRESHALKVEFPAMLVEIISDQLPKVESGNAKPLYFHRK
The experiment in a line: Mineralocorticoid Receptor Binding Assay (Method 1), [3H]-aldosterone competition. The following applies: 0.5 nM [3H]-aldosterone, human MR expressed in Sf9 cells. The method, then: Mineralocorticoid Receptor Binding Assay (Method 1):
The full length human MR gene is cloned from a human kidney or human brain cDNA library. […] The PCR reaction is performed in a final volume of 50 μl containing about 1 μl of a 50× stock solution of polymerase; about 1 μl of a 50× stock solution of dNTP; about 5 μl of an appropriate PCR buffer; about 1 μl of each primer; about 5 μl of a H. kidney or H. brain cDNA library; and about 36 μl of water. The reaction is allowed to denature for about 30 seconds at 95 degrees Celsius, anneal for about 30 seconds at 55 degrees Celsius, and extend for about 5 minutes at 72 degrees Celsius, the sequence being repeated for a total of about 35 cycles. […] To extract the cDNA product from the agarose gel, the QIAEX II Gel Extraction protocol (QIAGEN, Inc.) is employed according to the manufacturer's instructions. Following extraction, the MR cDNA is cloned into an appropriate cloning vector (Zero Blunt TOPO PCR Cloning Kit (Invitrogen, Inc.) and a pAcHLT-baculovirus transfer vector (B.D./Pharminogen), then expressed in SF9 insect cells, essentially according to manufacturer's instructions. Sf9 cells are grown at a scale where gram quantity cell pellets are obtained for subsequent use in the MR binding assay. Harvested cell pellets are lysed by repeated freeze-thaw cycles (about 4) in a suitable lysis buffer then centrifuged at about 1×10^3 G (with the supernatant being saved for future assays).
MR binding assays are performed in a final total volume of about 250 μl containing about 20-25 μg of protein and 0.5 nM of [^3H]-aldosterone plus varying concentrations of test compound or vehicle. The assay binding buffer consists of 30 mM sodium molybdate, 30 mM of TRIS-HCl, 5 mM sodium phosphate, 5 mM sodium pyrophosphate, and about 10% glycerol, pH=7.5.
Incubations are carried out at 4 degrees Celsius with shaking for about 16 hours. 200 μl aliquots of each incubation are filtered onto Millipore HA 0.45 micron 96-well filter plates, pre-moistened with cold 30 mM TRIS-HCl. The filter plates are suctioned dry with vacuum and immediately washed 3× with cold 30 mM TRIS-HCl. The plates are then punched out and the amount of receptor-ligand complex is determined by liquid scintillation counting using 4 ml of Ready Protein Plus™ liquid scintillation cocktail.

In the next experiment the target is T2, glucocorticoid receptor (Homo sapiens, UniProt P04150).
T2 construct: containing 50-200 ug of A549 cell extract and 1.86 nM; host or cells: A549 human lung epithelial cells
T2 sequence (P04150 1-777): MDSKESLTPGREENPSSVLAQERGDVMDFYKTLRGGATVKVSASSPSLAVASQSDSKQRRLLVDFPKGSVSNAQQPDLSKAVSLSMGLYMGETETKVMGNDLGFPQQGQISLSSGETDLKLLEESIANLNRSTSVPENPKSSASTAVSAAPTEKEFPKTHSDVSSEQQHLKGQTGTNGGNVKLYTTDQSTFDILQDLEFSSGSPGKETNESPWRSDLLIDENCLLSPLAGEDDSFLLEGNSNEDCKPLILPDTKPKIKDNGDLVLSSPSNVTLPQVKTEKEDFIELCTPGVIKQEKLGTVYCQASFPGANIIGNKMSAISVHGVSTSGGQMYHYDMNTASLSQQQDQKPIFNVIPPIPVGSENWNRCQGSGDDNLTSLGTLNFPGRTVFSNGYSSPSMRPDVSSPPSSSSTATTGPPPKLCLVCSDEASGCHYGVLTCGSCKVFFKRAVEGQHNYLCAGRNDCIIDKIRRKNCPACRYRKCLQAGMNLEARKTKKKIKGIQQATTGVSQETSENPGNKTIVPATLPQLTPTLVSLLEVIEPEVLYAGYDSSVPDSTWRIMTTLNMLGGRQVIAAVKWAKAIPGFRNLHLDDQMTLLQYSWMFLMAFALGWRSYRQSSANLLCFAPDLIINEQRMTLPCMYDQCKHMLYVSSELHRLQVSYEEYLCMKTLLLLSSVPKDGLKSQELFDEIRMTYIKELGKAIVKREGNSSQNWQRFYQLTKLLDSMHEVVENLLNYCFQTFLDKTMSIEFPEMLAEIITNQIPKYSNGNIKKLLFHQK
The experiment in a line: Glucocorticoid Receptor Binding Assay (Method 1), [3H]-dexamethasone competition, A549 cell extract. Conditions: 1.86 nM [3H]-dexamethasone, read-out: GR Ki (nM) Method 1. The method, then:
Glucocorticoid Receptor Binding Assay (Method 1):
A549 human lung epithelial cells (ATCC) are grown at a scale where gram quantity cell pellets are obtained. Harvested cell pellets are washed twice in cold phosphate buffered saline, centrifuged, and resuspended in cold assay binding buffer. The assay binding buffer consists of 10% glycerol, 50 mM Tris-HCl (pH7.2), 75 mM sodium chloride, 1.5 mM magnesium chloride, 1.5 mM EDTA, and 10 mM sodium molybdate. Cell suspensions were lysed via sonication, centrifuged, and the “extract” supernatant is snap frozen and stored at −80 C until needed.
Incubations are carried out at 4 degrees Celsius for 16 hours. After incubation, 70 ul of 3× dextran-coated charcoal solution is added to each reaction, mixed, and incubated for 8 minutes at RT. 3×-dextran-coated charcoal solution consists of 250 ml assay binding buffer, 3.75 g Norit A charcoal (Sigma), and 1.25 g dextran T-70 (Amersham). Charcoal/unbound radioligand complexes are removed by centrifugation of the plate and 140 ul of supernatant from each well is transferred to another 96 well Optiplate (Packard Instruments). 200 ul of Microscint-20 scinillant (Packard Instruments) is added to each well and amount of receptor bound radioligand is determined using Packard Instruments TopCount instrument.

In the case of `CCCC(C)(c1ccc(OC)cc1)c1c[nH]c2c(C)cccc12` (centres unmarked) [Example 20, 3-[1-(4-Methoxy-phenyl)-1-methyl-butyl]-7-methyl-1H-indole], the Ki on human MR and at glucocorticoid receptor was below 500 nM each time.
On to `CS(=O)(=O)Nc1cccc2c(C3(c4ccccc4)CCCC3)c[nH]c12` [Example 21, N-[3-(1-Phenyl-cyclopentyl)-1H-indole-7-yl]-methanesulfonamide], for which the Ki on human MR and on glucocorticoid receptor was below 500 nM throughout.
For the compound `CC(C)(c1ccc2c(c1)CCO2)c1c[nH]c2c(NS(C)(=O)=O)cccc12` [Example 22, N-{3-[1-(2,3-Dihydro-benzofuran-5-yl)-1-methyl-ethyl]-1H-indol-7-yl}-methanesulfonamide], the Ki at human MR and on glucocorticoid receptor was below 500 nM each time.
With `CCCCC(C)(c1ccc(OC)cc1)c1c[nH]c2c(C)cccc12` (centres unmarked) [Example 23, 3-[1-(4-Methoxy-phenyl)-1-methyl-pentyl]-7-methyl-1H-indole], the Ki on human MR and at glucocorticoid receptor was below 500 nM each time.
`COc1ccc(C(C)(c2c[nH]c3c(C)cccc23)C2CC2)cc1` (centres unmarked) [Example 24, 3-[1-Cyclopropyl-1-(4-methoxy-phenyl)-ethyl]-7-methyl-1H-indole]: the Ki at human MR and at glucocorticoid receptor was below 500 nM each time.
In the case of `CCc1cccc2c(C(C)(c3ccccc3)c3ccc(OC)cc3)c[nH]c12` (centres unmarked) [Example 25], the inhibition constant (Ki) on human MR and on glucocorticoid receptor was below 500 nM throughout.
For the compound `CCCC(C)(c1ccc(F)cc1)c1c[nH]c2c(C)cccc12` (centres unmarked) [Example 26, 3-[1-(4-Fluoro-phenyl)-1-methyl-butyl]-7-methyl-1H-indole], the Ki on human MR and at glucocorticoid receptor was below 500 nM in each case.
In the case of `CCc1cccc2c(C(C)(c3ccc(O)cc3)c3ccc(F)cc3)c[nH]c12` (centres unmarked) [Example 27, 4-[1-(7-Ethyl-1H-indole-3-yl)-1-(4-fluoro-phenyl)-ethyl]-phenol], the Ki is below 500 nM on human MR and below 1000 nM on glucocorticoid receptor.
On the same counts, the results for `COc1ccc(C(C)(c2ccccc2)c2c[nH]c3c(C)cccc23)cc1` (centres unmarked) [Example 28, 3-[1-(4-Methoxy-phenyl)-1-phenyl-ethyl]-7-methyl-1H-indole] are below 500 nM and below 1000 nM.
On to `CCC(CC)(c1cc2cc(OC)ccc2o1)c1c[nH]c2c(NS(C)(=O)=O)cccc12` [Example 29, N-{3-[1-Ethyl-1-(5-methoxy-benzofuran-2-yl)-propyl]-1H-indol-7-yl}-methanesulfonamide], for which the Ki at human MR was below 500 nM; at glucocorticoid receptor, below 1000 nM.
Turning to `CCC(CC)(c1ccco1)c1c[nH]c2c(NS(C)(=O)=O)cccc12` [Example 30, N-[3-(1-Ethyl-1-furan-2-yl-propyl)-1H-indol-7-yl]-methanesulfonamide], the Ki at human MR and at glucocorticoid receptor was below 500 nM in each case.
In the case of `CCC(C)(c1ccc(OC)cc1)c1c[nH]c2c(C)cccc12` (centres unmarked) [Example 31, 3-[1-(4-Methoxy-phenyl)-1-methyl-propyl]-7-methyl-1H-indole], the Ki at human MR and on glucocorticoid receptor was below 500 nM throughout.
For the compound `Cc1cccc2c(C3(c4ccc(F)cc4)CCCCC3)c[nH]c12` [Example 32, 3-[1-(4-Fluoro-phenyl)-cyclohexyl]-7-methyl-1H-indole], the Ki on human MR is below 500 nM; at glucocorticoid receptor it was below 10000 nM.
The matching figures for `CS(=O)(=O)Nc1cccc2c(C3(c4ccccc4)CCOCC3)c[nH]c12` [Example 33, N-[3-(4-Phenyl-tetrahydro-pyran-4-yl)-1H-indol-7-yl]-methanesulfonamide]: below 500 nM and below 500 nM.
The matching figures for `CCCC(C)(c1ccc(OC(F)(F)F)cc1)c1c[nH]c2c(N)cccc12` (centres unmarked) [Example 35]: below 500 nM and below 10000 nM.
Consider `CC(C)(c1cccc(-c2ccc(F)cc2)c1)c1c[nH]c2c(NS(C)(=O)=O)cccc12` [Example 36, N-{3-[1-(4′-Fluoro-biphenyl-3-yl)-1-methyl-ethyl]-1H-indol-7-yl}-methanesulfonamide], for which the Ki on human MR was below 500 nM; on glucocorticoid receptor, below 10000 nM.
Regarding `CCCC(C)(c1ccccc1)c1c[nH]c2c(C)cccc12` (centres unmarked) [Example 37, 7-Methyl-3-(1-methyl-1-phenyl-butyl)-1H-indole], the Ki at human MR and at glucocorticoid receptor was below 500 nM in each case.
In the case of `CCCC(C)(c1cccc(OC)c1)c1c[nH]c2c(N)cccc12` (centres unmarked) [Example 38, 3-[1-(3-Methoxy-phenyl)-1-methyl-butyl]-1H-indol-7-ylamine], the Ki at human MR was below 500 nM; at glucocorticoid receptor it was below 1000 nM.
On the same counts, the results for `CC(C)(c1ccc(-c2ccccc2)cc1)c1c[nH]c2c(NS(C)(=O)=O)cccc12` [Example 39, N-[3-(1-Biphenyl-4-yl-1-methyl-ethyl)-1H-indol-7-yl]-methanesulfonamide] are below 500 nM and below 1000 nM.
